{"source": "BindingDB's records for patent WO2022076764", "about": "(BRISTOL-MYERS SQUIBB COMPANY, 2022)", "key": {"[1]": {"molecular_target": "T1, N-formyl peptide receptor 2 (Homo sapiens, UniProt P25090)", "T1 sequence (P25090 whole entry)": "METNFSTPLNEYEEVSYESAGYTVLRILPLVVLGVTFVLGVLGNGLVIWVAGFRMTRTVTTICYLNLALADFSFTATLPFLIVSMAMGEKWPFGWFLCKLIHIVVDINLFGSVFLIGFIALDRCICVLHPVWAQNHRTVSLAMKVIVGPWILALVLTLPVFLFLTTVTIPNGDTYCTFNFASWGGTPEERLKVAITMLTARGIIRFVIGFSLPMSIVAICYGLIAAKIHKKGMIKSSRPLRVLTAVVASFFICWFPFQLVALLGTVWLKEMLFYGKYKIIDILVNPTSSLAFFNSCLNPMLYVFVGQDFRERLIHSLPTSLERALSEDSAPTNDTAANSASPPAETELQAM"}, "fMet-Leu-Phe receptor": {"molecular_target": "T2, fMet-Leu-Phe receptor (Homo sapiens, UniProt P21462)", "T2 sequence (P21462 whole entry)": "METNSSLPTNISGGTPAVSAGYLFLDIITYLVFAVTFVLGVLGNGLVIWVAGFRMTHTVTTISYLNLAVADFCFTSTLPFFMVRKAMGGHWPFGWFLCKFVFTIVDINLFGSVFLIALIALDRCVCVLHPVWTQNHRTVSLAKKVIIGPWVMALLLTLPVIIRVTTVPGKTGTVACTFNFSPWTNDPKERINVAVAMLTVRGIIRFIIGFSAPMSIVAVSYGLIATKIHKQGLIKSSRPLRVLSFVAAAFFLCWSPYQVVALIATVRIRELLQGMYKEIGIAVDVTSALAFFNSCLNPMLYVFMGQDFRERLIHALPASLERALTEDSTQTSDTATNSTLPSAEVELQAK"}}, "note": "pEC50: −log10 of the molar value.", "data": [{"molecule": "COc1cc(F)c(-n2cc(C(=O)N3CCCC(O)C3)nc2NC(=O)c2ccc(OC(F)F)cc2)c(F)c1", "note": "(centres undefined) [WO2022076764, Example 51]", "values": [{"measurement": "pEC50", "setting": "[1]", "value": 5.54}, {"measurement": "pEC50", "setting": "fMet-Leu-Phe receptor", "value": 7.08}]}, {"molecule": "COc1cc(F)c(-n2cc(C(=O)N3CCC(O)CC3)nc2NC(=O)c2ccc(OC(F)F)cc2)c(F)c1", "note": "[WO2022076764, Example 52]", "values": [{"measurement": "pEC50", "setting": "[1]", "value": "< 5.00"}, {"measurement": "pEC50", "setting": "fMet-Leu-Phe receptor", "value": 7.20}]}, {"molecule": "COc1cc(F)c(-n2cc(C(=O)NCCO)nc2NC(=O)c2ccc(OC(F)F)cc2)c(F)c1", "note": "[WO2022076764, Example 53]", "values": [{"measurement": "pEC50", "setting": "[1]", "value": 5.39}, {"measurement": "pEC50", "setting": "fMet-Leu-Phe receptor", "value": 6.89}]}, {"molecule": "COc1cc(F)c(-n2cc(C(=O)N3CCOCC3)nc2NC(=O)c2ccc(OC(F)F)cc2)c(F)c1", "note": "[WO2022076764, Example 54]", "values": [{"measurement": "pEC50", "setting": "[1]", "value": "< 5.00"}, {"measurement": "pEC50", "setting": "fMet-Leu-Phe receptor", "value": 6.49}]}, {"molecule": "COc1cc(F)c(-n2cc(C(=O)N3CCN(C)CC3)nc2NC(=O)c2ccc(OC(F)F)cc2)c(F)c1", "note": "[WO2022076764, Example 55]", "values": [{"measurement": "pEC50", "setting": "[1]", "value": "< 5.00"}, {"measurement": "pEC50", "setting": "fMet-Leu-Phe receptor", "value": 6.55}]}, {"molecule": "COc1cc(F)c(-n2cc(C(=O)NCc3cnc(C)cn3)nc2NC(=O)c2ccc(OC(F)F)cc2)c(F)c1", "note": "[WO2022076764, Example 56]", "values": [{"measurement": "pEC50", "setting": "[1]", "value": 6.96}, {"measurement": "pEC50", "setting": "fMet-Leu-Phe receptor", "value": 7.05}]}, {"molecule": "COc1cc(F)c(-n2cc(C(=O)N3CC[C@H](O)C3)nc2NC(=O)c2ccc(OC(F)F)cc2)c(F)c1", "note": "[WO2022076764, Example 57]", "values": [{"measurement": "pEC50", "setting": "[1]", "value": 5.72}, {"measurement": "pEC50", "setting": "fMet-Leu-Phe receptor", "value": 6.92}]}, {"molecule": "COc1cc(F)c(-n2cc(C(=O)N3CCNC(=O)C3)nc2NC(=O)c2ccc(OC(F)F)cc2)c(F)c1", "note": "[WO2022076764, Example 58]", "values": [{"measurement": "pEC50", "setting": "[1]", "value": 5.47}, {"measurement": "pEC50", "setting": "fMet-Leu-Phe receptor", "value": 6.77}]}, {"molecule": "COc1cc(F)c(-n2cc(C(=O)N3CCC(CO)C3)nc2NC(=O)c2ccc(OC(F)F)cc2)c(F)c1", "note": "(centres undefined) [WO2022076764, Example 59]", "values": [{"measurement": "pEC50", "setting": "[1]", "value": 5.66}, {"measurement": "pEC50", "setting": "fMet-Leu-Phe receptor", "value": 7.09}]}, {"molecule": "COc1cc(F)c(-n2cc(C(=O)NCCCO)nc2NC(=O)c2ccc(OC(F)F)cc2)c(F)c1", "note": "[WO2022076764, Example 60]", "values": [{"measurement": "pEC50", "setting": "[1]", "value": 5.85}, {"measurement": "pEC50", "setting": "fMet-Leu-Phe receptor", "value": 7.25}]}, {"molecule": "COc1cc(F)c(-n2cc(C(=O)N3CCNCC3)nc2NC(=O)c2ccc(OC(F)F)cc2)c(F)c1", "note": "[WO2022076764, Example 61]", "values": [{"measurement": "pEC50", "setting": "[1]", "value": "< 5.00"}, {"measurement": "pEC50", "setting": "fMet-Leu-Phe receptor", "value": 6.89}]}, {"molecule": "COc1cc(F)c(-n2cc(C(=O)Nc3cn[nH]c3)nc2NC(=O)c2ccc(OC(F)F)cc2)c(F)c1", "note": "[WO2022076764, Example 62]", "values": [{"measurement": "pEC50", "setting": "[1]", "value": 6.08}, {"measurement": "pEC50", "setting": "fMet-Leu-Phe receptor", "value": 7.49}]}, {"molecule": "COc1cc(F)c(-n2cc(C3CCNCC3)nc2NC(=O)c2ccc(OC(F)F)cc2)c(F)c1", "note": "[WO2022076764, Example 63]", "values": [{"measurement": "pEC50", "setting": "[1]", "value": 6.15}, {"measurement": "pEC50", "setting": "fMet-Leu-Phe receptor", "value": 8.00}]}, {"molecule": "COc1ccc(-n2cc(C3CCCNC3)nc2NC(=O)c2ccc(OC(F)F)cc2)cc1", "note": "(centres undefined) [WO2022076764, Example 64]", "values": [{"measurement": "pEC50", "setting": "[1]", "value": 6.68}, {"measurement": "pEC50", "setting": "fMet-Leu-Phe receptor", "value": 7.96}]}, {"molecule": "CCS(=O)(=O)N1CCC(c2cn(-c3c(F)cc(OC)cc3F)c(NC(=O)c3ccc(OC(F)F)cc3)n2)CC1", "note": "[WO2022076764, Example 65]", "values": [{"measurement": "pEC50", "setting": "[1]", "value": 6.49}, {"measurement": "pEC50", "setting": "fMet-Leu-Phe receptor", "value": 7.09}]}, {"molecule": "CCNC(=O)N1CCC(c2cn(-c3c(F)cc(OC)cc3F)c(NC(=O)c3ccc(OC(F)F)cc3)n2)CC1", "note": "[WO2022076764, Example 66]", "values": [{"measurement": "pEC50", "setting": "[1]", "value": 6.27}, {"measurement": "pEC50", "setting": "fMet-Leu-Phe receptor", "value": 7.55}]}, {"molecule": "COc1cc(F)c(-n2cc(C3CCN(C(=O)CCC(N)=O)CC3)nc2NC(=O)c2ccc(OC(F)F)cc2)c(F)c1", "note": "[WO2022076764, Example 67]", "values": [{"measurement": "pEC50", "setting": "[1]", "value": 7.08}, {"measurement": "pEC50", "setting": "fMet-Leu-Phe receptor", "value": 7.27}]}, {"molecule": "COc1cc(F)c(-n2cc(C3CCN(C(=O)CCO)CC3)nc2NC(=O)c2ccc(OC(F)F)cc2)c(F)c1", "note": "[WO2022076764, Example 68]", "values": [{"measurement": "pEC50", "setting": "[1]", "value": 6.96}, {"measurement": "pEC50", "setting": "fMet-Leu-Phe receptor", "value": 7.35}]}, {"molecule": "COc1cc(F)c(-n2cc(C(=O)N3CCC(CO)CC3)nc2NC(=O)c2ccc(OC(F)F)cc2)c(F)c1", "note": "[WO2022076764, Example 69]", "values": [{"measurement": "pEC50", "setting": "[1]", "value": 5.52}, {"measurement": "pEC50", "setting": "fMet-Leu-Phe receptor", "value": 7.07}]}, {"molecule": "COc1cc(F)c(-n2cc(C(C)C)nc2NC(=O)c2ccc(OC(F)F)cc2)c(F)c1", "note": "[WO2022076764, Example 70]", "values": [{"measurement": "pEC50", "setting": "[1]", "value": 6.01}, {"measurement": "pEC50", "setting": "fMet-Leu-Phe receptor", "value": 7.51}]}, {"molecule": "COc1cc(F)c(-n2cc(Cc3ccccc3)nc2NC(=O)c2ccc(OC(F)F)cc2)c(F)c1", "note": "[WO2022076764, Example 71]", "values": [{"measurement": "pEC50", "setting": "[1]", "value": 5.89}, {"measurement": "pEC50", "setting": "fMet-Leu-Phe receptor", "value": 7.34}]}, {"molecule": "CCOC(=O)Cc1cn(-c2c(F)cc(OC)cc2F)c(NC(=O)c2ccc(OC(F)F)cc2)n1", "note": "[WO2022076764, Example 72]", "values": [{"measurement": "pEC50", "setting": "[1]", "value": 6.33}, {"measurement": "pEC50", "setting": "fMet-Leu-Phe receptor", "value": 7.66}]}]}
